# Measurements: ChEMBL document CHEMBL5291721, “A preclinical secondary pharmacology resource illuminates target-adverse drug reaction associations of marketed drugs” (Nat Commun, 2023)
# Where a SMILES comes first, the peptide text is derived from it. [ ]: non-standard residue; d: D form. pGlu = O=C1CC[C@@H](C(=O)O)N1; Thz = O=C(O)[C@@H]1CSCN1
# What was measured:
# Histamine H3 receptor = Histamine H3 receptor (Homo sapiens, UniProt Q9Y5N1)
# [1] = biological target: T1, Alpha-2A adrenergic receptor (Homo sapiens, UniProt P08913); type: functional, cell-based
# T1 sequence (P08913 whole entry): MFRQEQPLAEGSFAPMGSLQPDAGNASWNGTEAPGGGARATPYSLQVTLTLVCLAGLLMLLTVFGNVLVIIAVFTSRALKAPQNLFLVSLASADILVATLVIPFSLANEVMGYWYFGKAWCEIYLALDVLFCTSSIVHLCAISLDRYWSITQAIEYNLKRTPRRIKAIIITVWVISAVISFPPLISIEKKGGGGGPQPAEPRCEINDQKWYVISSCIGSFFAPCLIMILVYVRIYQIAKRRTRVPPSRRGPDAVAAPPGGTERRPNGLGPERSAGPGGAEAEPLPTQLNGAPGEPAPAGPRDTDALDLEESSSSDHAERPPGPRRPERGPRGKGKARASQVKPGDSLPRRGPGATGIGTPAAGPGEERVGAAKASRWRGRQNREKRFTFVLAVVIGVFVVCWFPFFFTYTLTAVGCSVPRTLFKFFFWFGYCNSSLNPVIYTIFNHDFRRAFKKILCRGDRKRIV
# Histamine H2 receptor = Histamine H2 receptor (Homo sapiens, UniProt P25021); type: functional, cell-based
# [2] = biological target: Beta-2 adrenergic receptor (Homo sapiens, UniProt P07550)
# [3] = biological target: T2, Cholecystokinin receptor type A (Homo sapiens, UniProt P32238)
# T2 sequence (P32238 whole entry): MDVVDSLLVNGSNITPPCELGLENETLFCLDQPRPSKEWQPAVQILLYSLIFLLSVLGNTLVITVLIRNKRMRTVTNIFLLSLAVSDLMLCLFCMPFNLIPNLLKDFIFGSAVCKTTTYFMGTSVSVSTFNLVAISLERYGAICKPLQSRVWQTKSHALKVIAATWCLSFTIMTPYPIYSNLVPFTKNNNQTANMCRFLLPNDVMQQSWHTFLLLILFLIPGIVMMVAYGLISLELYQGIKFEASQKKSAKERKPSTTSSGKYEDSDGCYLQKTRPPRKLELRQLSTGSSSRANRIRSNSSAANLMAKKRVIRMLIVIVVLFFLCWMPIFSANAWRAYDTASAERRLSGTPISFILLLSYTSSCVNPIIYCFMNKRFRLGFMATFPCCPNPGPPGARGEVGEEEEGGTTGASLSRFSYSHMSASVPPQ
# [4] = biological target: 5-hydroxytryptamine receptor 2B (Homo sapiens, UniProt P41595); type: functional, cell-based
# [5] = biological target: Beta-1 adrenergic receptor (Homo sapiens, UniProt P08588); type: functional
# [6] = biological target: T3, Neuropeptide Y receptor type 1 (Homo sapiens, UniProt P25929)
# T3 sequence (P25929 whole entry): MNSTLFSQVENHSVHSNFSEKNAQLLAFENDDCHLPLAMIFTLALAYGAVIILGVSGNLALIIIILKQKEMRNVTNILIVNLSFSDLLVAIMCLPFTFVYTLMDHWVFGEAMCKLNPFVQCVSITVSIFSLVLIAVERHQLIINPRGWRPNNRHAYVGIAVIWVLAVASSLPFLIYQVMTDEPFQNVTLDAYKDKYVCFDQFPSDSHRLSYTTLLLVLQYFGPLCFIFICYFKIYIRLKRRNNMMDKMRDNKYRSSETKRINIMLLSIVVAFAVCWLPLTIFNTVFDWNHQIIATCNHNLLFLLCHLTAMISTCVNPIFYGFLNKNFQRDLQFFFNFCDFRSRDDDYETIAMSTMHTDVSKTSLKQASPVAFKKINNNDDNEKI
# Adenosine receptor A2a = Adenosine receptor A2a (Homo sapiens, UniProt P29274)
# Motilin receptor = Motilin receptor (Homo sapiens, UniProt O43193)
# [7] = biological target: Gamma-aminobutyric acid receptor subunit alpha-1 (Rattus norvegicus, UniProt P62813)
# Glucocorticoid receptor = biological target: T4, Glucocorticoid receptor (Homo sapiens, UniProt P04150)
# T4 sequence (P04150 whole entry): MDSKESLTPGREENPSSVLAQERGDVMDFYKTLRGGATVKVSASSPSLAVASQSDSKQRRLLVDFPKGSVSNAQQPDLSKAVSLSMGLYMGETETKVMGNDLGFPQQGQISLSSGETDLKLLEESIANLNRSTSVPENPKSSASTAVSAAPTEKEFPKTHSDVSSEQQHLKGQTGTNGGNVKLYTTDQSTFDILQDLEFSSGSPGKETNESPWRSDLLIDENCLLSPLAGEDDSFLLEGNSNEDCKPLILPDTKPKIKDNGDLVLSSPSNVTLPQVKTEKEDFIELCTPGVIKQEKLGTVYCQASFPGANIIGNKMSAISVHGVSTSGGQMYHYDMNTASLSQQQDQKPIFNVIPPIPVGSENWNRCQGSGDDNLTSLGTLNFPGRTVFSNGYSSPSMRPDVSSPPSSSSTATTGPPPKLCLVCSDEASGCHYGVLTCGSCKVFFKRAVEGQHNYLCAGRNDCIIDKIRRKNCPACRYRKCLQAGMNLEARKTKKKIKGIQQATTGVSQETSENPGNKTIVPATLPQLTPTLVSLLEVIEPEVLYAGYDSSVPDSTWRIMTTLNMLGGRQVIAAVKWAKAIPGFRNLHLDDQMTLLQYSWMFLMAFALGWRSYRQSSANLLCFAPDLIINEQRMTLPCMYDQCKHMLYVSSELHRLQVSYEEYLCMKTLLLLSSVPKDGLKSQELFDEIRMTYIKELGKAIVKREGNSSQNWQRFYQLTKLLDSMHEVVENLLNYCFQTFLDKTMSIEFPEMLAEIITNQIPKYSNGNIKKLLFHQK
# Adenosine receptor A1 = biological target: T5, Adenosine receptor A1 (Homo sapiens, UniProt P30542)
# T5 sequence (P30542 whole entry): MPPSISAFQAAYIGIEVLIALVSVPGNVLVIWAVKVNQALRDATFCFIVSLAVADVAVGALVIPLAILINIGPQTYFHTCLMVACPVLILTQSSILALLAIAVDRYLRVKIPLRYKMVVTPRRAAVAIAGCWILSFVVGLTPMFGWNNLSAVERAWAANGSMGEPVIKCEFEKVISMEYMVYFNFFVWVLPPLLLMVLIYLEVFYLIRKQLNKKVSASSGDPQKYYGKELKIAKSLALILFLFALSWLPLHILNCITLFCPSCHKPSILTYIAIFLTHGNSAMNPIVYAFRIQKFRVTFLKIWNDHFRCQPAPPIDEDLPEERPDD
# D(3) dopamine receptor = D(3) dopamine receptor (Homo sapiens, UniProt P35462)
# Note: assay procedure not described here.
# Sequence of Histamine H2 receptor (P25021 whole entry): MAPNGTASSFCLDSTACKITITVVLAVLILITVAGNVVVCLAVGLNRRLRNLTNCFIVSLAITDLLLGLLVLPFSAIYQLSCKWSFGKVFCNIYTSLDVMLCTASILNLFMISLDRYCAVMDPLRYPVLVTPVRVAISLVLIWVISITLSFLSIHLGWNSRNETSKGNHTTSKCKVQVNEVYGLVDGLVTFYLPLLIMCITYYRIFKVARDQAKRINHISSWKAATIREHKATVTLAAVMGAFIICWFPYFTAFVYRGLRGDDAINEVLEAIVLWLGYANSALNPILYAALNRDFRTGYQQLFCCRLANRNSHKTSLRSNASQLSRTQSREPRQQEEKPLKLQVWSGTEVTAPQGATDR
# Sequence of 5-hydroxytryptamine receptor 2B (P41595 whole entry): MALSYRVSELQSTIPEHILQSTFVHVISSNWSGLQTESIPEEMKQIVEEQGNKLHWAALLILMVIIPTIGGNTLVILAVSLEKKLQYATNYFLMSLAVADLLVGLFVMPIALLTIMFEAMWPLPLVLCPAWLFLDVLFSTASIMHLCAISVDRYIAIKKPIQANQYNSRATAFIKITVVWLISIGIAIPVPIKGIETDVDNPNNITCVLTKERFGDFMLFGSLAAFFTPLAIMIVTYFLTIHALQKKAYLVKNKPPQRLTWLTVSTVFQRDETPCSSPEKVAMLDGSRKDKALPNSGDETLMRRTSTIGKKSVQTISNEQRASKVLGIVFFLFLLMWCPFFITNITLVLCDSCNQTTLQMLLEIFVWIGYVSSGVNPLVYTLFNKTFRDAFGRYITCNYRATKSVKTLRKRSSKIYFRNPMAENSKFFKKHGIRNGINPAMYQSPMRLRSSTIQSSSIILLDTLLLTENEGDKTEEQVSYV
# Sequence of Gamma-aminobutyric acid receptor subunit alpha-1 (P62813 whole entry): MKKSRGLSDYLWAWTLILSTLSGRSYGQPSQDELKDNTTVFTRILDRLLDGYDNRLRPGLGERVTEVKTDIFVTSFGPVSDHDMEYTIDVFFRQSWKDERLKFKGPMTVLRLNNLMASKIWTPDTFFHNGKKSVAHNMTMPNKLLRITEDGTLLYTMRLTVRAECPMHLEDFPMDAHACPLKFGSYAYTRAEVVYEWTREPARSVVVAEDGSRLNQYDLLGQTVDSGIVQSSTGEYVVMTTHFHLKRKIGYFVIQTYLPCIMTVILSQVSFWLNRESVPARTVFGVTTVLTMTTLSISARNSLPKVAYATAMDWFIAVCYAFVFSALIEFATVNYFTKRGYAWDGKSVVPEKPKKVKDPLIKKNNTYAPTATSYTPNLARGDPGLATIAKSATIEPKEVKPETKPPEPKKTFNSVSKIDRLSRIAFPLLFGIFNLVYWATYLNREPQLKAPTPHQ
# Sequence of Beta-1 adrenergic receptor (P08588 whole entry): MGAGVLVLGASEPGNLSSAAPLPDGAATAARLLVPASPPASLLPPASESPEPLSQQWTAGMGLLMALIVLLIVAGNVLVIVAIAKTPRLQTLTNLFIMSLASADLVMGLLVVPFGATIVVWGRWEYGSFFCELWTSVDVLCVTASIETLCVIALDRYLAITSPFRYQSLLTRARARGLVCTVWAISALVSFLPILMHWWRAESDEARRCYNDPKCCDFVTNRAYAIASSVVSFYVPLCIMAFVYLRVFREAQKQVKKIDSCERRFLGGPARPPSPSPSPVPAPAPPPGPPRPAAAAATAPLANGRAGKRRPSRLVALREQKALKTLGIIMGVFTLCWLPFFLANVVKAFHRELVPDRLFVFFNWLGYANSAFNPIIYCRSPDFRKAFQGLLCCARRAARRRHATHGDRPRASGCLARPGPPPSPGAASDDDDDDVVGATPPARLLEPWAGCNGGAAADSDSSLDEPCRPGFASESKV
# Sequence of Adenosine receptor A2a (P29274 whole entry): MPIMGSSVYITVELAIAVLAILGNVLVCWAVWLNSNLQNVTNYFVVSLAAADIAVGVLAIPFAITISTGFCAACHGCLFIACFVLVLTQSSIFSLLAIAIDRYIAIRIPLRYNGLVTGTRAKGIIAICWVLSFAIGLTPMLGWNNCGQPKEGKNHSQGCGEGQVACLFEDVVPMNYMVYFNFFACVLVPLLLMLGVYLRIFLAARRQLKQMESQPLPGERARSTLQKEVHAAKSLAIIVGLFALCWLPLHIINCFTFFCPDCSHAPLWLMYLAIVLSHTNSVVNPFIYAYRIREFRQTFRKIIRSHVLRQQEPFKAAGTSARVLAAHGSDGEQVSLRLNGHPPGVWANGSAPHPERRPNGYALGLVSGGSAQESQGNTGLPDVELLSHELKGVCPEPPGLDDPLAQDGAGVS
# Sequence of Beta-2 adrenergic receptor (P07550 whole entry): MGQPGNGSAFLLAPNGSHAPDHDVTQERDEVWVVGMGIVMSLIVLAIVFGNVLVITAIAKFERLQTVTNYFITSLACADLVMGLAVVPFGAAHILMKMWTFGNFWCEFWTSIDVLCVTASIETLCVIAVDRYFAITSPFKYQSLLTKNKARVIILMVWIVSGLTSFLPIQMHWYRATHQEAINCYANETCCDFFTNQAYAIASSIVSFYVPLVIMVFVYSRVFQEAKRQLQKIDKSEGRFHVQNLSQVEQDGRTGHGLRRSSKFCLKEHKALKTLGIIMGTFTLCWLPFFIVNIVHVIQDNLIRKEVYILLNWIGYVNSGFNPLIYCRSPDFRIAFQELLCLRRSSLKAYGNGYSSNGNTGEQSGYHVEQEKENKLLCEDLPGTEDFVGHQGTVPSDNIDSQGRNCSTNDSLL
# Sequence of Histamine H3 receptor (Q9Y5N1 whole entry): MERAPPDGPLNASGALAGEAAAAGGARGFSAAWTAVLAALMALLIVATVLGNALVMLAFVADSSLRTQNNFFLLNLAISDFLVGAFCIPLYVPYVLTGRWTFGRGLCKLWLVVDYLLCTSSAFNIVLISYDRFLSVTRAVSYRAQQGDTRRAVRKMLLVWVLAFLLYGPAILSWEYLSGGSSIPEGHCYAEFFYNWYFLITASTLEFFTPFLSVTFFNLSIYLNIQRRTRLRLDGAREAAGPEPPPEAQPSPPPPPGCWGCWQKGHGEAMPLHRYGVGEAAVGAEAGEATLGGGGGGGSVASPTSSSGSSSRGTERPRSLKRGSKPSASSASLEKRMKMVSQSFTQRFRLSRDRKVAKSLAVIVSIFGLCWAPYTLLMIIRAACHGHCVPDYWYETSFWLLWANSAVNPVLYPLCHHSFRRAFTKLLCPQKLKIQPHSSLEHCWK
# Sequence of D(3) dopamine receptor (P35462 whole entry): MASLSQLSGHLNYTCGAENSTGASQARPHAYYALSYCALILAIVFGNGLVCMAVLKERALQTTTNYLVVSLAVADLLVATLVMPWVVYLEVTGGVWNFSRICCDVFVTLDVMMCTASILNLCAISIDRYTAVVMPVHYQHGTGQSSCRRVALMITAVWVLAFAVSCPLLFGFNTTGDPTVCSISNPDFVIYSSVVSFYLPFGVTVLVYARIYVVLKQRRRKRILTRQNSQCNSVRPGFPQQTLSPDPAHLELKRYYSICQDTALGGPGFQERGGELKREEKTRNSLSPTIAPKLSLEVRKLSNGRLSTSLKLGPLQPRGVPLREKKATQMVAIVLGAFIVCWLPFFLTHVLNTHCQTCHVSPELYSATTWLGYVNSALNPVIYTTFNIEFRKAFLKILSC
# Sequence of Motilin receptor (O43193 whole entry): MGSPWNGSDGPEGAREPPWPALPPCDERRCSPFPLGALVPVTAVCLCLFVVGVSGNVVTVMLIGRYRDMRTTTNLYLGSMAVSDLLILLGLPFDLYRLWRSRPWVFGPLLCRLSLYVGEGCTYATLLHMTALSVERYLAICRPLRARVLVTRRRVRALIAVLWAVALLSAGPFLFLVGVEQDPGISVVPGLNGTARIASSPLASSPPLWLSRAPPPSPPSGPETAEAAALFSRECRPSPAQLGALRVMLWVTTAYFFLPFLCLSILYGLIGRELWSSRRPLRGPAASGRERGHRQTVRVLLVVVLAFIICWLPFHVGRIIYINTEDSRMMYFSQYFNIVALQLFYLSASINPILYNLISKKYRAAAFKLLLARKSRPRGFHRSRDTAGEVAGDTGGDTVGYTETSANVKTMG
AC50 (Histamine H3 receptor),AC50 [1],AC50 (Histamine H2 receptor),AC50 [2],AC50 [3],AC50 [4],AC50 [5],AC50 [6],AC50 (Adenosine receptor A2a),AC50 (Motilin receptor),AC50 [7],AC50 (Glucocorticoid receptor),AC50 (Adenosine receptor A1),AC50 (D(3) dopamine receptor),SMILES
22 µM,> 30 µM,> 30 µM,> 30 µM,> 30 µM,1.3 µM,> 30 µM,> 30 µM,> 30 µM,> 30 µM,> 30 µM,> 30 µM,> 30 µM,> 30 µM,CCN1CCCC1CNC(=O)c1cc(S(=O)(=O)CC)ccc1OC (centres undefined) [SULTOPRIDE]
> 30 µM,> 30 µM,> 30 µM,> 30 µM,> 30 µM,> 30 µM,> 30 µM,> 30 µM,> 30 µM,> 30 µM,> 30 µM,> 30 µM,> 30 µM,> 30 µM,COc1cc(C(=O)NC2CCCNC2)cc(OC)c1OC (centres undefined) [TROXIPIDE]

# More lines, now with the values behind:
SMILES,AC50 (Histamine H3 receptor),AC50 [1],AC50 (Histamine H2 receptor),AC50 [2],AC50 [3],AC50 [4],AC50 [5],AC50 [6],AC50 (Adenosine receptor A2a),AC50 (Motilin receptor),AC50 [7],AC50 (Glucocorticoid receptor),AC50 (Adenosine receptor A1),AC50 (D(3) dopamine receptor)
Cc1ccnc2c1NC(=O)c1cccnc1N2C1CC1 [NEVIRAPINE],> 10 µM,> 10 µM,> 10 µM,> 10 µM,> 30 µM,> 10 µM,> 10 µM,> 30 µM,15.2 µM,> 10 µM,> 10 µM,> 30 µM,31.2 µM,> 10 µM
O=C1CC[C@@H](C(=O)N2CSC[C@H]2C(=O)O)N1 [PIDOTIMOD] ([pGlu]-[Thz]-OH),> 30 µM,> 30 µM,> 30 µM,> 30 µM,> 30 µM,> 30 µM,> 30 µM,> 30 µM,> 30 µM,> 30 µM,> 30 µM,> 30 µM,> 30 µM,> 30 µM
CCOC(=O)c1ccc(C#Cc2ccc3c(c2)C(C)(C)CCS3)nc1 [TAZAROTENE],> 10 µM,> 10 µM,> 30 µM,> 10 µM,> 30 µM,> 10 µM,> 10 µM,> 30 µM,> 30 µM,> 10 µM,> 10 µM,> 30 µM,> 30 µM,> 30 µM
COc1ccc(CN2CCN(C(c3ccc(F)cc3)c3ccc(F)cc3)CC2)c(OC)c1OC [LOMERIZINE],> 30 µM,> 30 µM,> 30 µM,> 30 µM,> 30 µM,5.9 µM,> 30 µM,> 30 µM,> 30 µM,> 30 µM,> 30 µM,> 30 µM,> 30 µM,2.2 µM
